According to ChEMBL document CHEMBL1201862, “PubChem BioAssay data set” (2004):
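A five-concentration, 48-hour dose response in 96-well plates underlies each endpoint, interpolated linearly between surrounding concentrations. GI50: concentration for 50% inhibition of growth.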 Calls of active or inactive are those of the source. Rule as the data show it: active = GI50 up to about 1.1 µM and inactive = higher.

Assays:
Assay in all cases: NCI-60 cell line screen, 48 h
[1] = system: SF-539
[2] = system: CAKI-1
[3] = system: RPMI-8226
[4] = system: M14
[5] = system: KM12
[6] = system: HCC 2998
[7] = system: SR
[8] = system: MDA-MB-435
[9] = system: SK-MEL-28
[10] = system: U-251
[11] = system: OVCAR-3
[12] = system: Malme-3M
[13] = system: T47D
[14] = system: OVCAR-5
[15] = system: COLO 205
[16] = system: HCT-116
[17] = system: OVCAR-4
[18] = system: TK-10
[19] = system: LOX IMVI
[20] = system: MCF7

In the case of COc1c(Br)cc2c(c1OC)C(Br)CCC(Br)(Br)C2=O (stereo not given), the GI50 [1] is reported as 1.85 µM (inactive), the GI50 [2] is reported as 2.77 µM (inactive) and the GI50 [3] is reported as 1.34 µM (inactive). For the same compound, the GI50 [4] was 0.228 µM (active), the GI50 [5] was 3.72 µM (inactive) and the GI50 [6] was 5.08 µM (inactive). For the same compound, the GI50 [7] was 0.0368 µM (active), the GI50 [8] was 0.434 µM (active) and the GI50 [9] was 2.5 µM (inactive). For the same compound, the GI50 [10] was 2.18 µM (inactive), the GI50 [11] was 1.14 µM (inactive) and the GI50 [12] was 1.89 µM (inactive). The GI50 [13] was 1.85 µM (inactive), the GI50 [14] was 4.92 µM (inactive) and the GI50 [15] was 1.82 µM (inactive). For the same compound, the GI50 [16] was 0.273 µM (active), the GI50 [17] was 1.65 µM (inactive) and the GI50 [18] was 3.17 µM (inactive). For the same compound, the GI50 [19] was 0.419 µM (active) and the GI50 [20] was 0.74 µM (active).
With C[C@@]1(CCCCCCCCCCc2ccccc2)C[C@@]2(C)OC(=O)C[C@H]2OO1 the GI50 [1] was 1.57 µM (inactive), the GI50 [2] was 30.3 µM (inactive) and the GI50 [3] was 1.85 µM (inactive). For the same compound, the GI50 [4] was 1.51 µM (inactive), the GI50 [5] was 1.81 µM (inactive) and the GI50 [6] was 1.66 µM (inactive). For the same compound, the GI50 [7] was 1.88 µM (inactive), the GI50 [8] was 1.81 µM (inactive) and the GI50 [9] was 2.07 µM (inactive). The GI50 [10] was 1.55 µM (inactive), the GI50 [11] was 1.79 µM (inactive) and the GI50 [12] was 1.54 µM (inactive). The GI50 [13] was 2.49 µM (inactive), the GI50 [14] was 1.76 µM (inactive) and the GI50 [15] was 1.7 µM (inactive). For the same compound, the GI50 [16] was 1.45 µM (inactive), the GI50 [17] was 2.17 µM (inactive) and the GI50 [18] was 2.83 µM (inactive). The GI50 [19] was 2.05 µM (inactive) and the GI50 [20] was 1.56 µM (inactive).
With COc1ccc(-c2ccc(C(=O)C=P(c3ccccc3)(c3ccccc3)c3ccccc3)cc2)cc1 the GI50 [1] was 17.7 µM (inactive), the GI50 [2] was 11.4 µM (inactive) and the GI50 [3] was 2.12 µM (inactive). The GI50 [4] was 11.6 µM (inactive), the GI50 [5] was 13.7 µM (inactive) and the GI50 [6] was 1.79 µM (inactive). The GI50 [7] was 16.2 µM (inactive), the GI50 [8] was 12.2 µM (inactive) and the GI50 [9] was 14.8 µM (inactive). The GI50 [10] was 13 µM (inactive), the GI50 [11] was 3.41 µM (inactive) and the GI50 [12] was 18.7 µM (inactive). For the same compound, the GI50 [13] was 5.68 µM (inactive), the GI50 [14] was 16.6 µM (inactive) and the GI50 [15] was 3.94 µM (inactive). For the same compound, the GI50 [16] was 12.4 µM (inactive), the GI50 [17] was 7.96 µM (inactive) and the GI50 [18] was 10.8 µM (inactive). The GI50 [19] was 13.2 µM (inactive) and the GI50 [20] was 10.1 µM (inactive).
In the case of CC(=O)O[C@@H]1CO[C@H]2O[C@H]3[C@@H](C(C=O)=C[C@H](O)[C@@H]4C5=C(C(C)C)CC[C@]5(C)CC[C@@]34C)[C@@]2(O)C1=O [STRIATIN E], the GI50 [1] is reported as 0.177 µM (active), the GI50 [2] is reported as 0.2 µM (active) and the GI50 [3] is reported as 0.0592 µM (active). For the same compound, the GI50 [4] was 0.262 µM (active), the GI50 [5] was 0.404 µM (active) and the GI50 [6] was 0.519 µM (active). For the same compound, the GI50 [7] was 0.146 µM (active), the GI50 [8] was 0.174 µM (active) and the GI50 [9] was 0.234 µM (active). The GI50 [10] was 0.175 µM (active), the GI50 [11] was 0.139 µM (active) and the GI50 [12] was 0.177 µM (active). The GI50 [13] was 0.0889 µM (active), the GI50 [14] was 0.303 µM (active) and the GI50 [15] was 0.0769 µM (active). For the same compound, the GI50 [16] was 0.076 µM (active), the GI50 [17] was 0.241 µM (active) and the GI50 [18] was 0.229 µM (active). The GI50 [19] was 0.277 µM (active) and the GI50 [20] was 0.217 µM (active).
CCn1c2c(c3c(C(=O)OC)c(O)ccc31)C(=O)c1ccccc1C2=O was tested, and the GI50 [1] was 13.2 µM (inactive), the GI50 [2] was 15.5 µM (inactive) and the GI50 [3] was 7.6 µM (inactive). For the same compound, the GI50 [4] was 14.2 µM (inactive), the GI50 [5] was 16.6 µM (inactive) and the GI50 [6] was 19.4 µM (inactive). For the same compound, the GI50 [7] was 11.3 µM (inactive), the GI50 [8] was 12.9 µM (inactive) and the GI50 [9] was 16.9 µM (inactive). For the same compound, the GI50 [10] was 14.7 µM (inactive), the GI50 [11] was 16.4 µM (inactive) and the GI50 [12] was 15.8 µM (inactive). The GI50 [13] was 8.07 µM (inactive), the GI50 [14] was 18.4 µM (inactive) and the GI50 [15] was 17.1 µM (inactive). The GI50 [16] was 13.1 µM (inactive), the GI50 [17] was 10.2 µM (inactive) and the GI50 [18] was 32.4 µM (inactive). For the same compound, the GI50 [19] was 13.2 µM (inactive) and the GI50 [20] was 16.4 µM (inactive).
With Cn1c2ccccc2c(=NNc2ccccc2C(=O)O)c2ccccc21 the GI50 [1] was 13.1 µM (inactive), the GI50 [2] was 23.3 µM (inactive) and the GI50 [3] was 9.82 µM (inactive). The GI50 [4] was 22.6 µM (inactive), the GI50 [5] was 12.7 µM (inactive) and the GI50 [6] was 19.7 µM (inactive). The GI50 [7] was 11.9 µM (inactive), the GI50 [8] was 20 µM (inactive) and the GI50 [9] was 20.2 µM (inactive). The GI50 [10] was 7.03 µM (inactive), the GI50 [11] was 10.8 µM (inactive) and the GI50 [12] was 20.4 µM (inactive). For the same compound, the GI50 [13] was 20.3 µM (inactive), the GI50 [14] was 30.3 µM (inactive) and the GI50 [15] was 16.3 µM (inactive). The GI50 [16] was 13.5 µM (inactive), the GI50 [17] was 13.7 µM (inactive) and the GI50 [18] was 32.1 µM (inactive). The GI50 [19] was 11.8 µM (inactive) and the GI50 [20] was 10.9 µM (inactive).
For c1cc(CSc2ncnc3[nH]cnc23)ccn1, the GI50 [1] was 24.5 µM (inactive), the GI50 [2] was > 100 µM (inactive) and the GI50 [3] was 58.1 µM (inactive). The GI50 [4] was 34.8 µM (inactive), the GI50 [5] was > 100 µM (inactive) and the GI50 [6] was 92.5 µM (inactive). The GI50 [7] was 34.4 µM (inactive), the GI50 [8] was 53.2 µM (inactive) and the GI50 [9] was > 100 µM (inactive). For the same compound, the GI50 [10] was > 100 µM (inactive), the GI50 [11] was 63 µM (inactive) and the GI50 [12] was > 100 µM (inactive). For the same compound, the GI50 [13] was 76.6 µM (inactive), the GI50 [14] was > 100 µM (inactive) and the GI50 [15] was > 100 µM (inactive). For the same compound, the GI50 [16] was 77.8 µM (inactive), the GI50 [17] was > 100 µM (inactive) and the GI50 [18] was 59.8 µM (inactive). The GI50 [19] was 28.2 µM (inactive) and the GI50 [20] was 83.4 µM (inactive).
